Data published in paper PMC6509406 (Chembiochem : a European journal of chemical biology, 2018).
“Also recorded” adds a separate entry of the source.

Assays:
[1] = biological target: DgcA (CC3285) diguanylate cyclase (Caulobacter crescentus, UniProt Q9A3B9); assay: FRET-based DGC activity assay, dose-response; format: biochemical; conditions: for Hill coeff: from fitting the concentration-response curves; for remaining DGC activity of the enzyme-inhibitor-substrate complex: compound saturating concentration; for mode of modulation of DgcA activity / binding affinity towards DgcA: in words
[2] = biological target: mCYPet-YcgR-mYPet c-di-GMP biosensor (PilZ protein YcgR); conditions: cited from earlier work; for biosensor FRET response: specificity for c-di-GMP
[3] = IC50 (binding affinity) against DgcA, running text and figure legends
[4] = IC50 ± SD, Table 2, negative and silent allosteric modulators

SMILES	remaining DGC activity of the enzyme-inhibitor-substrate complex [1] [%]	mode of modulation of DgcA activity [1]	IC50 [1, 4] [µM]	% Activity ESI (DGC activity of the enzyme-substrate-inhibitor complex) ([1]; Table 2, compound saturation) [%]	Hill coeff ([1]; Table 2)	binding affinity towards DgcA [1]	further results
O=C(OCC(=O)N1CCCC1=O)c1ccc2ncsc2c1 [Compound 1, [2-oxo-2-(2-oxopyrrolidin-1-yl)ethyl] 1,3-benzothiazole-6-carboxylate]	1.4	complete inhibition; also recorded: complete inhibitor; also recorded: complete negative allosteric modulator	–	–	–	–	IC50 [1, 3]: < 10 µM; IC50 ([1]; IC50 ± SD, Table 1, 20 nM DgcA, 20 μM GTP, 25 °C, 1% DMSO): 4 ± 0.2 µM; Hill coeff ([1]; Table 1): 2.34 ± 0.19; % Activity ESI (DGC activity of the enzyme-substrate-inhibitor complex) ([1]; Table 1, inhibitor saturation): 1.40 ± 0.1%
O=C(OCC(=O)N1CCCC1=O)c1ccc2ncoc2c1 [Compound 1g, 2-oxo-2-(2-oxopyrrolidin-1-yl)ethyl benzo[d]oxazole-6-carboxylate]	87.7	silent allosteric modulators; also recorded: silent allosteric regulator	3.1 ± 0.7	87.7 ± 4.2	2.35 ± 0.82	–	–
O=C(OCC(=O)N1CCCC1=O)c1ccccc1 [Compound 1h, 2-oxo-2-(2-oxopyrrolidin-1-yl)ethyl benzoate]	118	positive modulators; also recorded: positive allosteric regulator	–	117.9 ± 1.4	2.02 ± 0.19	–	AC50 [1]: 238 ± 72 µM
Cc1nc2ccc(C(=O)OCC(=O)N3CCCC3=O)cc2s1 [Compound 1i, 2-oxo-2-(2-oxopyrrolidin-1-yl)ethyl 2-methylbenzo[d]thiazole-6-carboxylate]	–	–	52.9 ± 10.7	68.1 ± 8.8	2.72 ± 1.28	–	–
O=C(OCC(=O)N1CCCC1=O)c1ccc2occc2c1 [Compound 1j, 2-Oxo-2-(2-oxopyrrolidin-1-yl)ethyl benzofuran-5-carboxylate]	92.2	silent allosteric modulators	4.4 ± 2.2	92.2 ± 0.6	2.05 ± 0.12	–	–
O=C(OCC(=O)N1CCCC1=O)c1ccc2[nH]ccc2c1 [Compound 1k, 2-oxo-2-(2-oxopyrrolidin-1-yl)ethyl 1H-indole-5-carboxylate]	–	negative modulators	324 ± 39	6.3 ± 0.4	2.37 ± 0.30	strongly reduced binding affinities	–
Cn1ccc2cc(C(=O)OCC(=O)N3CCCC3=O)ccc21 [Compound 1l, 2-oxo-2-(2-oxopyrrolidin-1-yl)ethyl 1-methyl-1H-indole-5-carboxylate]	–	negative modulators	300 ± 37.7	–	–	strongly reduced binding affinities	–
Cn1cnc2cc(C(=O)OCC(=O)N3CCCC3=O)ccc21 [Compound 1m, 2-oxo-2-(2-oxopyrrolidin-1-yl)ethyl 1-methyl-1H-benzo[d]imidazole-5-carboxylate]	–	negative modulators	82.2 ± 14.6	–	1.52 ± 0.28	strongly reduced binding affinities	–
O=C(OCC(=O)N1CCCC1=O)c1ccc2cnccc2c1 [Compound 1n, 2-oxo-2-(2-oxopyrrolidin-1-yl)ethyl isoquinoline-6-carboxylate]	–	negative modulators	179 ± 10.5	0.0 ± 2.0	2.06 ± 0.15	strongly reduced binding affinities	–
O=C(OCC(=O)N1CCCC1=O)c1ccc2nccnc2c1 [Compound 1o, 2-oxo-2-(2-oxopyrrolidin-1-yl)ethyl quinoxaline-6-carboxylate]	–	negative modulators	344 ± 19.9	0.0 ± 0.7	2.22 ± 0.16	strongly reduced binding affinities	–
O=C(OCC(=O)N1CCCC1=O)c1ccc2scnc2c1 [Compound 1p, 2-oxo-2-(2-oxopyrrolidin-1-yl)ethyl benzothiazole-5-carboxylate]	–	–	627 ± 49	–	–	–	IC50 [1, 3]: 626 µM
CN(C)c1ccc(C(=O)OCC(=O)N2CCCC2=O)cc1 [Compound 1q, 2-oxo-2-(2-oxopyrrolidin-1-yl)ethyl 4-(dimethylamino)benzoate]	176	positive modulators	–	176.1 ± 3.3	2.51 ± 0.68	–	AC50 [1]: 222 ± 85.6 µM
O=C(OCC(=O)N1CCCC1=O)c1ccc([N+](=O)[O-])cc1 [Compound 1r, 2-oxo-2-(2-oxopyrrolidin-1-yl)ethyl 4-nitrobenzoate]	156	positive modulators	–	156.4 ± 1.7	2.01 ± 0.18	–	AC50 [1]: 55.5 ± 13.6 µM
O=C(NCC(=O)N1CCCC1=O)c1ccc2ncsc2c1 [Compound 1s, N-(2-oxo-2-(2-oxopyrrolidin-1-yl)ethyl)-benzo[d]thiazole-6-carboxamide]	48	partial inhibitor	–	–	–	–	IC50 [1, 3]: 31.6 µM
CC(OC(=O)c1ccc2ncsc2c1)C(=O)N1CCCC1=O (stereo not drawn) [Compound 1t, 1-oxo-1-(2-oxopyrrolidin-1-yl)propan-2-yl benzo[d]thiazole-6-carboxylate]	–	–	–	–	–	completely abolished binding affinity	–
O=C(OCCC(=O)N1CCCC1=O)c1ccc2ncsc2c1 [Compound 1u, 3-oxo-3-(2-oxopyrrolidin-1-yl)propyl benzo[d]thiazole-6-carboxylate]	–	–	–	–	–	completely abolished binding affinity	–
Cc1ccc(C)c(OCCCC(=O)Nc2ccc(N3CCOCC3)cc2)c1 [Compound 2, 4-(2,5-dimethylphenoxy)-N-(4-morpholin-4-ylphenyl)butanamide]	31.4	partial inhibitor	–	–	–	–	IC50 [1, 3]: < 10 µM; IC50 ([1]; IC50 ± SD, Table 3, negative and silent allosteric modulators): 6.4 ± 0.5 µM; % Activity ESI (DGC activity of the enzyme-substrate-inhibitor complex) ([1]; Table 3, compound saturation): 31.4 ± 1.3%; Hill coeff ([1]; Table 3): 1.36 ± 0.13
Nc1nc2c(ncn2[C@@H]2O[C@@H]3COP(=O)(O)O[C@H]4[C@@H](O)[C@H](n5cnc6c(=O)[nH]c(N)nc65)O[C@@H]4COP(=O)(O)O[C@H]3[C@H]2O)c(=O)[nH]1 [c-di-GMP, cyclic diguanosine monophosphate]	–	–	–	–	–	–	Kd ([2]; read-out: binding constant (KD) of the biosensor for c-di-GMP, 25°C): 198 nM
Nc1nc2c(ncn2[C@@H]2O[C@@H]3COP(=O)(O)O[C@H]3[C@H]2O)c(=O)[nH]1 [cyclic GMP]	–	–	–	–	–	–	biosensor FRET response [2]: no detectable response
Nc1nc2c(ncn2[C@@H]2O[C@H](COP(=O)(O)OP(=O)(O)OP(=O)(O)O)[C@@H](O)[C@H]2O)c(=O)[nH]1 [guanosine 5-triphosphate]	–	–	–	–	–	–	biosensor FRET response [2]: no detectable response
